The results in this text go back to BindingDB's records for doi:10.1016/j.bioorg.2015.10.007 (University of Thessaly, 2015).

Structures are written as SMILES. pIC50, pKi: −log10 of the molar value.

Assay [1] deals with T1, Non-secretory ribonuclease (Homo sapiens, UniProt P10153).
T1 sequence (P10153 whole entry): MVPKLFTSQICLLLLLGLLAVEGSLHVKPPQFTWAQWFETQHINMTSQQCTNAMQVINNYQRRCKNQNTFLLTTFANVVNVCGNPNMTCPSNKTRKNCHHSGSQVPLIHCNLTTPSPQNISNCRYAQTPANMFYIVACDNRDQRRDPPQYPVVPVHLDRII
The assay can be described thus: Ribonuclease Activity Assay. To be noted: 30 °C. As to the method:
(§1) The Ribonuclease Activity assay used was adapted from the procedure described by Anfinsen et al. and Slifman et al. Determination of ribonuclease activity of RNase A and EDN proceeded as follows: yeast tRNA (Sigma-Aldrich) was solubilized in 50 mM sodium phosphate, pH = 7.4, at a concentration of 60 uM. Various tRNA concentrations were used: 2 uM, 3 uM, 4 uM, 5 uM and 6 uM. The final volume of the reaction was 300 ul. tRNA solutions were incubated at 30 C for 10 min. 10 nM of enzyme final concentration from a 0.6 uM stock solution added to the reactionmixture. The reaction was stopped one minute and five minutes later in the case of RNase A and EDN respectively, by the addition of 300 ul of fresh ice-cold solution of 40 mM lanthanum nitrate, 6% v/v perchloric acid. Stopped reactions were maintained on ice for 15 min, and insoluble tRNA was removed by centrifugation at 4 C for 15 min at 14.500 rpm on a bench centrifuge. The amountof cleaved tRNA was determined from the ultraviolet absorbance at 260 nm (A260) of the supernatant fraction.

A further assay deals with Ribonuclease pancreatic (Bos taurus, UniProt P61823). As to the kind of experiment: Ribonuclease Activity Assay. To be noted: 30 °C. As to the method:
as §1

Ribonuclease pancreatic, sequence (P61823 whole entry): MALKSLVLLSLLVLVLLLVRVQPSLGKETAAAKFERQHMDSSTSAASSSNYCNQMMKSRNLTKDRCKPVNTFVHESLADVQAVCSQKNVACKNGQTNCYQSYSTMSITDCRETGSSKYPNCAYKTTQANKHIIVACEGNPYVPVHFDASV

By pIC50 is commonly meant −log10 of the IC50, conventionally taken in molar units. By pKi is commonly meant −log10 of the Ki, conventionally taken in molar units. Higher therefore signals a low Ki. As to `O=c1ccn(Cc2cn([C@@H]3O[C@H](CO)[C@H](O)C3O)nn2)c(=O)[nH]1` (stereo partly drawn) [1-({1-[(2R,5R)-3,4-dihydroxy-5-(hydroxymethyl)oxolan-2-yl]-1H-1,2,3-triazol-4-yl}methyl)-1,2,3,4-tetrahydropyrimidine-2,4-dione (I)], in assay [1], the pIC50 was 3.75 and the negative logarithm of the Ki (pKi) is 3.93.
In the case of `O=c1[nH]c(=O)n(Cc2cn([C@@H]3O[C@H](CO)[C@H](O)C3O)nn2)cc1F` (stereo partly drawn) [1-({1-[(2R,5R)-3,4-dihydroxy-5-(hydroxymethyl)oxolan-2-yl]-1H-1,2,3-triazol-4-yl}methyl)-5-fluoro-1,2,3,4-tetrahydropyrimidine-2,4-dione (III)], in assay [1], the pIC50 was 4.20 and the pKi was 4.35.
With `Nc1ncnc2c1ncn2Cc1cn([C@@H]2C(O)[C@H](n3cc(F)c(=O)[nH]c3=O)O[C@@H]2CO)nn1` (stereo partly drawn) [1-[3'-[4-[(Adenine-9-yl)methyl]-1,2,3-triazol-1-yl]-b-D-ribofuranosyl]5-fluorouracil (5c)], at Ribonuclease pancreatic, the pKi is 3.58.
The same measure, in the same setting: the same measure for `Nc1ncnc2c1ncn2Cc1cn([C@@H]2C(O)[C@H](n3ccc(=O)[nH]c3=O)O[C@@H]2CO)nn1` (stereo partly drawn) [1-[3'-[4-[(Adenine-9-yl)methyl]-1,2,3-triazol-1-yl]-b-D-ribofuranosyl]uracil (5a)]: 3.80.
For `O=c1[nH]c(=O)n([C@@H]2O[C@H](CO)[C@H](O)C2O)cc1F` (stereo partly drawn) [1-[(2R,5R)-3,4-dihydroxy-5-(hydroxymethyl)oxolan-2-yl]-5-fluoro-1,2,3,4-tetrahydropyrimidine-2,4-dione (VI)], in assay [1], the pIC50 was 3.55 and the negative logarithm of the Ki (pKi) was 3.68.
Take `Cc1cn([C@@H]2O[C@H](CO)[C@H](O)C2O)c(=O)[nH]c1=O` (stereo partly drawn) [1-[(2R,5R)-3,4-dihydroxy-5-(hydroxymethyl)oxolan-2-yl]-5-methyl-1,2,3,4-tetrahydropyrimidine-2,4-dione (IV)]: in assay [1], the pIC50 was 4.48 and the pKi was 4.58.
Regarding `O=c1[nH]c(=O)n(Cc2cn([C@@H]3O[C@H](CO)[C@H](O)C3O)nn2)cc1Cl` (stereo partly drawn) [5-chloro-1-({1-[(2R,5R)-3,4-dihydroxy-5-(hydroxymethyl)oxolan-2-yl]-1H-1,2,3-triazol-4-yl}methyl)-1,2,3,4-tetrahydropyrimidine-2,4-dione (II)], in assay [1], the pIC50 was 3.27 and the pKi was 3.34.
On the same counts, the results for `O=c1[nH]c(=O)n([C@@H]2O[C@H](CO)[C@H](O)C2O)cc1Cl` (stereo partly drawn) [5-chloro-1-[(2R,5R)-3,4-dihydroxy-5-(hydroxymethyl)oxolan-2-yl]-1,2,3,4-tetrahydropyrimidine-2,4-dione (V)] are 2.83 and 2.97.
As for `NC1=NC=NC2C1N=CN2[C@@H]1O[C@H](CO)[C@H](n2cc(Cn3ccc(N)nc3=O)nn2)C1O` (stereo partly drawn) [9-[3'-[4-[(Cytosine-1-yl)methyl]-1,2,3-triazol-1-yl]-b-D-ribofuranosyl]adenine (11c)], in assay [1], the negative-log IC50 (pIC50) was 4.05 and the pKi is 4.24. This compound also gave a pKi on Ribonuclease pancreatic of 4.01.
As for `Cc1cn(Cc2cn([C@@H]3C(O)[C@H](n4cnc5c(NC(=O)c6ccccc6)ncnc54)O[C@@H]3CO)nn2)c(=O)[nH]c1=O` (stereo partly drawn) [9-[3'-[4-[(Thymine-1-yl)methyl]-1,2,3-triazol-1-yl]-b-D-ribofuranosyl]N6-benzoyladenine (11b)], in assay [1], the negative-log IC50 (pIC50) was 3.42 and the pKi is 3.61. This compound showed a pKi at Ribonuclease pancreatic of 3.82.
`Cc1cn(Cc2cn([C@@H]3C(O)[C@H](N4C=NC5C(N)=NC=NC54)O[C@@H]3CO)nn2)c(=O)[nH]c1=O` (stereo partly drawn) [9-[3'-[4-[(Thymine-1-yl)methyl]-1,2,3-triazol-1-yl]-b-D-ribofuranosyl]adenine (12b)]: in assay [1], the pIC50 is 3.25 and the negative logarithm of the Ki (pKi) was 3.44. Besides, the pKi at Ribonuclease pancreatic is 4.16.
In assay [1], `O=C(Nc1ncnc2c1ncn2[C@@H]1O[C@H](CO)[C@H](n2cc(Cn3ccc(=O)[nH]c3=O)nn2)C1O)c1ccccc1` (stereo partly drawn) [9-[3'-[4-[(Uracil-1-yl)methyl]-1,2,3-triazol-1-yl]-b-D-ribofuranosyl]N6-benzoyladenine (11a)] showed a pIC50 of 3.39 and a pKi of 3.57. Moreover, the negative-log Ki (pKi) on Ribonuclease pancreatic is 4.26.
For the compound `NC1=NC=NC2C1N=CN2[C@@H]1O[C@H](CO)[C@H](n2cc(Cn3ccc(=O)[nH]c3=O)nn2)C1O` (stereo partly drawn) [9-[3'-[4-[(Uracil-1-yl)methyl]-1,2,3-triazol-1-yl]-b-D-ribofuranosyl]adenine (12a)], in assay [1], the pIC50 was 3.19 and the negative logarithm of the Ki (pKi) is 3.37. Also, the pKi at Ribonuclease pancreatic is 3.97.
